From patent publication US6953813B1, “2-Aminotetralin derivatives for the therapy of glaucoma” (Chiesi Farmaceutici S.p.A., priority 1999, dated 2005) come the findings set out here.

As usually defined, the pKa is the negative logarithm of the acid dissociation constant. Low values mean a stronger acid or weaker base, high ones a weaker acid or stronger base.

A short description of this data set: pKa. Format: physicochemical. An excerpt: The higher apparent partition coefficient would be more favorable for ophthalmic absorption. However, an acid aqueous solution should be used as a vehicle for eyedrop administration due to the better chemical stability of CHF 1035 in such pH range. The theoretical log Papp of the corresponding not esterified derivative turned out to be −0.9 at pH 7.4.

Turning to `CNC1CCc2c(ccc(OC(=O)C(C)C)c2OC(=O)C(C)C)C1` (racemic) [CHF 1035, (±)-(R,S)-5,6-diisobutyryloxy-2-methylaminotetralin], the pKa turned out to be 9.4.
